Test results taken from patent US5166398A, “4-oxy-substituted phenoxyalkyl carboxylic acid, ester, and alcohol derivatives as antihyper-cholesterolemic and antiatherosclerotic agents” (Warner-Lambert Co., priority 1991, dated 1992).

Test system: coronary heart disease
Assay: not given
Conditions: human, in vivo; cited from earlier work

| SMILES | effect on HDL (in words) | effect on LDL (in words) |
| --- | --- | --- |
| Cc1ccc(C)c(OCCCC(C)(C)C(=O)O)c1 [gemfibrozil] | elevates HDL | lowers LDL |

Same assay, conditions: patients with elevated cholesterol levels; five-year trial; cited from earlier work

| SMILES | reduction of the rate of heart attack and sudden cardiac death |
| --- | --- |
| Cc1ccc(C)c(OCCCC(C)(C)C(=O)O)c1 [gemfibrozil] | 34% |

Test system: not listed separately
Assay: elevation of HDL at 50 mg/kg relative to gemfibrozil 50 mg/kg (procedure of U.S. Pat. No. 4,413,011)
Assay type: in vivo
Conditions: ratio of HDL elevation, test drug 50 mg/kg vs gemfibrozil 50 mg/kg; 1 = as effective as gemfibrozil
Procedure: Additionally, the elevation of HDL is reported in the table as a ratio of the elevation of HDL effected by a dose of 50 mg/kg of the test drug divided by the elevation of HDL effected by a 50 mg/kg dose of gemfibrozil which is used as a control in each experiment. [formula] Thus, a figure of 1 means that the test drug was as effective as gemfibrozil in elevating HDL. […] The test procedure is described in U.S. Pat. No. 4,413,011 which is herein incorporated by reference.

| SMILES | Δ HDL Test Compound / Δ HDL Gemfibrozil |
| --- | --- |
| CCCCOc1cc(C)c(OCCCC(C)(C)C(=O)OC)cc1C [Example 2, 5-(4-Butoxy-2,5-dimethylphenoxy)-2,2-dimethylpentanoic acid, methyl ester] | 0.85 |
| CCOc1cc(C)c(OCCCC(C)(C)C(=O)OC)cc1C [Example 3, 5-(4-Ethoxy-2,5 dimethylphenoxy)-2,2 dimethylpentanoic acid, methyl ester] | 1.2 |
| COc1cc(C)c(OCCCC(C)(C)C(=O)O)cc1C [Example 4, 5-(4-Methoxy-2,5-dimethylphenoxy)-2,2-dimethylpentanoic acid] | 1.2 |
| CCCCOc1cc(C)c(OCCCC(C)(C)C(=O)O)cc1C [Example 5, 5-(4-Butoxy-2,5-dimethylphenoxy)-2,2-dimethylpentanoic acid] | 0.9 |
| CCOc1cc(C)c(OCCCC(C)(C)C(=O)O)cc1C [Example 6, 5-(4-Ethoxy-2,5-dimethylphenoxy)-2,2-dimethylpentanoic acid] | 1.4 |
| COC(=O)C(C)(C)CCCOc1c(C)cc(OC(=O)C(C)(C)C)c(C)c1C [Example 7, 5-[4-(2,2-Dimethyl-1-oxopropoxy)-2,3,6-trimethylphenoxy]-2,2 dimethylpentanoic acid, methyl ester] | 1.1 |
| COC(=O)C(C)(C)CCCOc1cc(C)c(OCc2ccccc2)c(C)c1C [Example 8, 2,2-Dimethyl-5-[2,3,5-trimethyl-4-(phenylmethoxy)phenoxy]pentanoic acid, methyl ester] | 1.0 |
| Cc1cc(OCCCC(C)(C)C(=O)O)c(C)c(C)c1OCc1ccccc1 [Example 9, 2,2-Dimethyl-5-[2,3,5-trimethyl-4-(phenylmethoxy)-phenoxy]pentanoic acid] | 0.9 |
| Cc1cc(OCCCC(C)(C)CO)c(C)c(C)c1OCc1ccccc1 [Example 10] | 0.9 |
| COC(=O)C(C)(C)CCCOc1cc(C)c(OCc2ccccc2)c(C)c1 [Example 11, 5-[3,5-Dimethyl-4-(phenylmethoxy)phenoxy]-2,2-dimethylpentanoic acid, methyl ester] | 1.2 |
| Cc1cc(OCc2ccccc2)c(C)cc1OCCCC(C)(C)C(=O)O [Example 14, 5-[2,5-Dimethyl-4-(phenylmethoxy)phenoxy]-2,2-dimethylpentanoic acid] | 1.0 |

Target: T1, acyl-CoA:cholesterol acyltransferase (ACAT) (Oryctolagus cuniculus, UniProt G1SFD9)
T1 construct: rabbit intestinal microsomal fraction; from tissue; host or cells: rabbit intestine, microsomal fraction
T1 sequence (G1SFD9 1-524): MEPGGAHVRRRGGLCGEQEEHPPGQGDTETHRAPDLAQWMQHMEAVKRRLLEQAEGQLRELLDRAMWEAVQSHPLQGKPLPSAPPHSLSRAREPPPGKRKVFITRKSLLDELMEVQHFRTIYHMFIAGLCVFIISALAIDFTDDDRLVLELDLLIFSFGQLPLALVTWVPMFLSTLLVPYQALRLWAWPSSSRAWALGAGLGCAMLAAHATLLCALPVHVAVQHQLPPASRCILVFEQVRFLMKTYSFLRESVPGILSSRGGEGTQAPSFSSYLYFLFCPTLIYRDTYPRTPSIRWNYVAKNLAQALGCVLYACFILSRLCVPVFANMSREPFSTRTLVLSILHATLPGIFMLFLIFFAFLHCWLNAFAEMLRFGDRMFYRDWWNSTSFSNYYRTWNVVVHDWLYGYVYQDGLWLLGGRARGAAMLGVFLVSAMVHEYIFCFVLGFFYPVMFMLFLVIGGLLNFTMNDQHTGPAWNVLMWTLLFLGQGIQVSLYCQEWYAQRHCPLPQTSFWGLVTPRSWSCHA
Assay: inhibition of cholesterol esterification by ACAT, rabbit intestinal microsomal fraction (cholesteryl oleate formation from endogenous cholesterol and exogenous 14C-oleoyl-CoA)
Assay type: biochemical
Conditions: rabbit intestinal microsomes; in vitro; read-out: IC50, concentration of test compound required to inhibit cholesteryl oleate formation to 50% of control
Procedure: The compounds of the present invention were tested for their ability to inhibit the esterification of cholesterol by the enzyme acyl-CoA:cholesterol acyltransferase (ACAT). The data in the table below is expressed as IC50 values, i.e., the concentration of test compound required to inhibit cholesteryl oleate formation to 50% of control.
The in vitro test employed is more fully described in Field, F. J. and Salome, R. G., Biochemica et Biophysica Acta, Vol. 712, pages 557-570 (1982). The assay evaluates the ability of a test compound to inhibit the esterification of cholesterol using endogenous cholesterol of a rabbit intestinal microsomal fraction and exogenous ^14 C-oleoyl-CoA as reactants.

| SMILES | IC50 |
| --- | --- |
| COC(=O)C(C)(C)CCCOc1cc(C)c(OC(=O)Nc2c(C(C)C)cccc2C(C)C)cc1C [Example 15, 5-[4-[[[[2,6-Bis(1-methylethyl)phenyl]amino]carbonyl]oxy]-2,5-dimethylphenoxy]-2,2-dimethylpentanoic acid, methyl ester] | > 5 µM |
